These results are taken from patent publication US9795139B2, “Molecules having pesticidal utility, and intermediates, compositions, and processes, related thereto” (priority 2015, dated 2017).

Test [1] relates to Beet Armyworm (Spodoptera exigua, LAPHEG). The test can be described thus: Bioassay on Beet Armyworm (BAW), 128-well diet tray assay. The test is classed as in vivo. The following applies: 168 h, 50 μg/cm^2 on artificial diet, second instar larvae, 25° C., five to seven days, average of eight wells, read-out: BAW % Control (or Mortality) rating. The procedure:
(§1) Certain molecules disclosed in this document were tested against BAW and CL using procedures described in the following examples. In the reporting of the results, the “BAW & CL Rating Table” was used (See Table Section).
Bioassays on BAW were conducted using a 128-well diet tray assay. One to five second instar BAW larvae were placed in each well (3 mL) of the diet tray that had been previously filled with approximately 1.5 mL of artificial diet to which 50 μg/cm^2 of the test molecule (dissolved in 50 μL of 90:10 acetone-water mixture) had been applied (to each of eight wells) and then allowed to dry. Trays were covered with a clear self-adhesive cover, vented to allow gas exchange, and held at 25° C., 14:10 light-dark for five to seven days. Percent mortality was recorded for the larvae in each well; activity in the eight wells was then averaged. The results are indicated in the table entitled “Table ABC: Biological Results” (See Table Section).

Test [2] concerns Cabbage Looper (Trichoplusia ni, TRIPNI). The experiment in a line: Bioassay on Cabbage Looper (CL), 128-well diet tray assay. The following applies: 168 h, 50 μg/cm^2 on artificial diet, second instar larvae, 25° C., five to seven days, average of eight wells, read-out: CL % Control (or Mortality) rating. The class given is in vivo. As to the method: as §1
Bioassays on CL were conducted using a 128-well diet tray assay. one to five second instar CL larvae were placed in each well (3 mL) of the diet tray that had been previously filled with 1 mL of artificial diet to which 50 μg/cm^2 of the test molecule (dissolved in 50 μL of 90:10 acetone-water mixture) had been applied (to each of eight wells) and then allowed to dry. Trays were covered with a clear self-adhesive cover, vented to allow gas exchange, and held at 25° C., 14:10 light-dark for five to seven days. Percent mortality was recorded for the larvae in each well; activity in the eight wells was then averaged. The results are indicated in the table entitled “Table ABC: Biological Results” (See Table Section).

The term mortality denotes the percentage killed. In the case of `O=C(NC1CC(F)(F)C1)c1cc(NC(=O)[C@H]2[C@H](c3cc(Cl)c(Cl)c(Cl)c3)C2(Cl)Cl)ccc1Cl` (relative stereo) [Molecule F6, trans-2-Chloro-5-(2,2-dichloro-3-(3,4,5-trichlorophenyl)cyclopropanecarboxamido)-N-(3,3-difluorocyclobutyl)benzamide], the mortality at 50 µg/cm2 in test [1] and in test [2] was 50 to 100% throughout.

`O=C(NC1CCSC1)c1cc(NC(=O)[C@H]2[C@H](c3cc(Cl)cc(Cl)c3)C2(Cl)Cl)ccc1Cl` (relative stereo) [Molecule F7, trans-2-Chloro-5-(2,2-dichloro-3-(3,5-dichlorophenyl)cyclopropanecarboxamido)-N-(tetrahydrothiophen-3-yl)benzamide]: the mortality at 50 µg/cm2 in test [1] and in test [2] was 50 to 100% throughout.

On to `O=C(NC1CC(F)(F)C1)c1cc(NC(=O)[C@H]2[C@H](c3cc(Cl)c(Cl)cc3Cl)C2(Cl)Cl)ccc1Cl` (relative stereo) [Molecule F20, trans-2-Chloro-5-(2,2-dichloro-3-(2,4,5-trichlorophenyl)cyclopropanecarboxamido)-N-(3,3-difluorocyclobutyl)benzamide], for which the mortality at 50 µg/cm2 in test [1] and in test [2] was 50 to 100% in each case.

Take `N#CC1(NC(=O)c2cc(NC(=O)[C@H]3[C@H](c4ccc(C(F)(F)F)cc4)C3(Cl)Cl)ccc2Cl)CC1` (relative stereo) [Molecule F23, trans-2-Chloro-N-(1-cyanocyclopropyl)-5-(2,2-dichloro-3-(4-(trifluoromethyl)phenyl)cyclopropanecarboxamido)benzamide]: the mortality at 50 µg/cm2 in test [1] and in test [2] was 50 to 100% throughout.

In the case of `O=C(NC1CC(F)(F)C1)c1cc(NC(=O)[C@H]2[C@H](c3cc(C(F)(F)F)cc(C(F)(F)F)c3)C2(Cl)Cl)ccc1Cl` (relative stereo) [Molecule F24, trans-5-(3-(3,5-Bis(trifluoromethyl)phenyl)-2,2-dichlorocyclopropanecarboxamido)-2-chloro-N-(3,3-difluorocyclobutyl)benzamide], the mortality at 50 µg/cm2 in test [1] and in test [2] was 50 to 100% throughout.

For `N#CC1(NC(=O)c2cc(NC(=O)[C@H]3[C@H](c4cc(C(F)(F)F)cc(C(F)(F)F)c4)C3(Cl)Cl)ccc2Cl)CC1` (relative stereo) [Molecule F25, trans-5-(3-(3,5-Bis(trifluoromethyl)phenyl)-2,2-dichlorocyclopropanecarboxamido)-2-chloro-N-(1-cyanocyclopropyl)benzamide], the mortality at 50 µg/cm2 in test [1] and in test [2] was 50 to 100% throughout.

As to `O=C(NC1CC(F)(F)C1)c1cc(NC(=O)[C@H]2[C@H](c3cc(Cl)cc(C(F)(F)F)c3)C2(Cl)Cl)ccc1Cl` (relative stereo) [Molecule F26, trans-2-Chloro-5-(2,2-dichloro-3-(3-chloro-5-(trifluoromethyl)phenyl)cyclopropanecarboxamido)-N-(3,3-difluorocyclobutyl)benzamide], the mortality at 50 µg/cm2 in test [1] and in test [2] was 50 to 100% each time.

Turning to `N#CC1(NC(=O)c2cc(NC(=O)[C@H]3[C@H](c4cc(Cl)cc(C(F)(F)F)c4)C3(Cl)Cl)ccc2Cl)CC1` (relative stereo) [Molecule F27, trans-2-Chloro-N-(1-cyanocyclopropyl)-5-(2,2-dichloro-3-(3-chloro-5-(trifluoromethyl)phenyl)cyclopropanecarboxamido)benzamide], the mortality at 50 µg/cm2 in test [1] and in test [2] was 50 to 100% throughout.

`O=C(NC1CC(F)(F)C1)c1cc(NC(=O)[C@H]2[C@H](c3cc(Br)cc(Br)c3)C2(Cl)Cl)ccc1Cl` (relative stereo) [Molecule F28, trans-2-Chloro-5-(2,2-dichloro-3-(3,5-dibromophenyl)cyclopropanecarboxamido)-N-(3,3-difluorocyclobutyl)benzamide]: the mortality at 50 µg/cm2 in test [1] and in test [2] was 50 to 100% each time.

Turning to `N#CC1(NC(=O)c2cc(NC(=O)[C@H]3[C@H](c4cc(Br)cc(Br)c4)C3(Cl)Cl)ccc2Cl)CC1` (relative stereo) [Molecule F29, trans-2-Chloro-N-(1-cyanocyclopropyl)-5-(2,2-dichloro-3-(3,5-dibromophenyl)cyclopropanecarboxamido)benzamide], the mortality at 50 µg/cm2 in test [1] and in test [2] was 50 to 100% each time.

As for `O=C(NC1CC(F)(F)C1)c1cc(NC(=O)[C@H]2[C@H](c3cc(Cl)c(F)c(Cl)c3)C2(Cl)Cl)ccc1Cl` (relative stereo) [Molecule F30, trans-2-Chloro-5-(2,2-dichloro-3-(3,5-dichloro-4-fluorophenyl)cyclopropanecarboxamido)-N-(3,3-difluorocyclobutyl)benzamide], the mortality at 50 µg/cm2 in test [1] and in test [2] was 50 to 100% each time.

As for `N#CC1(NC(=O)c2cc(NC(=O)[C@H]3[C@H](c4cc(Cl)c(F)c(Cl)c4)C3(Cl)Cl)ccc2Cl)CC1` (relative stereo) [Molecule F31, trans-2-Chloro-N-(1-cyanocyclopropyl)-5-(2,2-dichloro-3-(3,5-dichloro-4-fluorophenyl)cyclopropanecarboxamido)benzamide], the mortality at 50 µg/cm2 in test [1] and in test [2] was 50 to 100% in each case.

Consider `O=C(NC1CC(F)(F)C1)c1cc(NC(=O)[C@H]2[C@H](c3ccccc3)C2(Cl)Cl)ccc1Cl` (relative stereo) [Molecule F37, trans-2-Chloro-5-(2,2-dichloro-3-phenylcyclopropanecarboxamido)-N-(3,3-difluorocyclobutyl)benzamide], for which the mortality at 50 µg/cm2 in test [1] and in test [2] was 50 to 100% in each case.

With `N#CC1(NC(=O)c2cc(NC(=O)[C@H]3[C@H](c4ccccc4)C3(Cl)Cl)ccc2Cl)CC1` (relative stereo) [Molecule F38, trans-2-Chloro-N-(1-cyanocyclopropyl)-5-(2,2-dichloro-3-phenylcyclopropanecarboxamido)benzamide], the mortality at 50 µg/cm2 in test [1] and in test [2] was 50 to 100% in each case.

For `Cc1cc(Cl)cc([C@H]2[C@H](C(=O)Nc3ccc(Cl)c(C(=O)NC4(C#N)CC4)c3)C2(Cl)Cl)c1` (relative stereo) [Molecule F47, trans-2-Chloro-N-(1-cyanocyclopropyl)-5-(2,2-dichloro-3-(3-chloro-5-methylphenyl)cyclopropanecarboxamido)benzamide], the mortality at 50 µg/cm2 in test [1] and in test [2] was 50 to 100% each time.

In the case of `Cc1c(Cl)cc([C@H]2[C@H](C(=O)Nc3ccc(Cl)c(C(=O)NC4(C#N)CC4)c3)C2(Cl)Cl)cc1Cl` (relative stereo) [Molecule F49, trans-2-Chloro-N-(1-cyanocyclopropyl)-5-(2,2-dichloro-3-(3,5-dichloro-4-methylphenyl)cyclopropanecarboxamido)benzamide], the mortality at 50 µg/cm2 in test [1] and in test [2] was 50 to 100% each time.

As for `O=C(NN1CCOCC1)c1cc(NC(=O)[C@H]2[C@H](c3cc(Cl)cc(Cl)c3)C2(Cl)Cl)ccc1Cl` (relative stereo) [Molecule F52, trans-2-Chloro-5-(2,2-dichloro-3-(3,5-dichlorophenyl)cyclopropanecarboxamido)-N-morpholinobenzamide], the mortality at 50 µg/cm2 in test [1] and in test [2] was 50 to 100% in each case.

As for `O=C(NC1CS(=O)(=O)C1)c1cc(NC(=O)[C@H]2[C@H](c3cc(Cl)c(Cl)c(Cl)c3)C2(Cl)Cl)ccc1Cl` (relative stereo) [Molecule F58, trans-2-chloro-5-(2,2-dichloro-3-(3,4,5-trichlorophenyl)cyclopropanecarboxamido)-N-(1,1-dioxidothietan-3-yl)benzamide], the mortality at 50 µg/cm2 in test [1] and in test [2] was 50 to 100% in each case.

With `O=C(NC1CNC1)c1cc(NC(=O)[C@H]2[C@H](c3cc(Cl)cc(Cl)c3)C2(Cl)Cl)ccc1Cl` (relative stereo) [Molecule F59, trans-N-(azetidin-3-yl)-2-chloro-5-(2,2-dichloro-3-(3,5-dichlorophenyl)cyclopropanecarboxamido) benzamide], the mortality at 50 µg/cm2 in test [1] and in test [2] was 50 to 100% in each case.

`O=C(NC1CN(C(=O)C(F)(F)F)C1)c1cc(NC(=O)[C@H]2[C@H](c3cc(Cl)cc(Cl)c3)C2(Cl)Cl)ccc1Cl` (relative stereo) [Molecule F60, trans-2-chloro-5-(2,2-dichloro-3-(3,5-dichlorophenyl)cyclopropanecarboxamido)-N-(1-(2,2,2-trifluoroacetyl)azetidin-3-yl)benzamide]: the mortality at 50 µg/cm2 in test [1] and in test [2] was 50 to 100% each time.
